Entries after “also recorded” stand apart in the source; their conditions may differ.
Assays:
lean control mouse = assay: Single intracerebroventricular (ICV) injection, food intake and weight change after 24 hours; type: in vivo; conditions: 2 nmol ICV, 24 hours
Description: To investigate a central anorexigenic mechanism for weight loss in mice treated with NB-DNJ, single intracerebro-ventricular (ICV) injections were performed. The mice were assessed for food intake and weight change. Mice were anesthetized with isofluorane (4%) delivered by a vaporiser. Upon achievement of a surgical plane of anaesthesia, the animal was transferred to and secured in a Kopf small animal ultra precise stereotaxic instrument (David Kopf Instruments, Tujunga, Calif., USA) fitted with rat ear bars, mouse adaptor and mouse anaesthesia mask. A small amount of lignocaine local anaesthetic gel was applied to the ear bars to reduce any post-operative discomfort. For the remainder of the procedure, anaesthesia was maintained with 2.5% isofluorane. Lacrilube (Allergan Ltd, High Wycombe, UK) was applied to the mouse's eyes and a subcutaneous injection of the non-steroidal anti-inflammatory drug, Rimadyl (Pfizer, Sandwich, Kent, UK) was given for post-operative analgesia. For ICV injections, a small scalpel incision was made along the midline of the scalp from above the eyes to the occiput. A small hole was drilled in the skull, 1 mm lateral and 0.34 mm posterior to Bregma. 1 μl solution was slowly infused into the lateral ventricle at a depth of 2.25 mm, via a glass needle pipette pulled to a thickness of less than 100 microns at the tip. Mice were injected with 2 nmol compound (NB-DNJ, NB-DGJ or 2-deoxy glucose) in isotonic saline vehicle which was injected into controls. The incision was then closed using VetBond acrylic suture fluid (3M Animal Care Products, St Paul, Minn., USA). The whole procedure from induction of anaesthesia to full recovery lasted less than seven minutes. Mice were allowed free access to a pre-weighed quantity of RM1 pellet diet with water provided ad libitum. 24 hours following ICV injection the mice and remaining diet were weighed. To confirm a central anorectic effect of NB-DNJ, 2 nmol NB-DNJ, NB-DGJ and 2 deoxyglucose were injected directly into the lateral cerebral ventricle of lean control mouse brain (approximately 100 μM final cerebro-ventricular concentration). Mice injected with both saline vehicle and NB-DGJ ate a normal quantity of pellet diet in the following 24 hours (FIG. 9), approximately 5% less in this experiment than that seen in control mice in FIG. 7 (not statistically significant). In contrast, NB-DNJ-injected mice ate 20% less (p<0.02 for both saline and NB-DGJ) and 2-deoxy-glucose injections caused a 10% increase in feeding. 2-deoxy-glucose is a mild appetite stimulant in the short-term. Tsutsui et al., Physiol Behav 31, 493-502. In contrast, NB-DGJ had no effect, as expected.

control lean mice = assay: ICV mini-pump implants, long-term intracerebro-ventricular delivery; type: in vivo, mouse; conditions: ICV mini-pump 500 mM, first 24 hours
Description: FIG. 11. Control lean mice (n=5 in each group) had icv minipumps (50 mM imino sugar) implanted. Body weight was the monitored at regular intervals over three weeks. See example 7 for further experimental details. The effect of long-term intracerebro-ventricular delivery of imino sugars was determined by the implantation of Alzet mini-osmotic pumps (model 2004, DURECT Corporation, CA, USA) together with the brain infusion kit II which features a high stability low profile cannula. The mini-pumps were loaded with 0.24 ml imino sugar or saline vehicle. The indwelling 28 gauge stainless steel cannula was cut to a length of 2.25 mm. Mice were anaesthetised as for the ICV injections and underwent similar surgical procedures throughout. After drilling a small hole in the cranium at the midline, 2 mm posterior to Bregma, the mini-pump was positioned subcutaneously in the animal's flank and the cannula was implanted. This position and depth ensured delivery to the third cerebral ventricle. The implant was secured to the cranium using VetBond acrylic suture fluid, which was also used to close the surgical wound. The whole procedure lasted less than 9 minutes and mice were fully conscious and recovered within three minutes. For concentration of imino sugar in mini-pumps see figure legends.

C57B1/6 mice = assay: Effect of imino sugars admixed with diet on growth of normal control mice; type: in vivo, mouse; conditions: 2400 mg/kg/day in diet
Description: Control C57B1/6 and C57BL/6O1aHsd-Lep ob mice were obtained from Harlan, UK at five weeks of age. The mice were housed under standard non-sterile conditions and fed a diet of mouse chow pelleted or expanded ground RM1 diet (SDS Ltd, Witham, Essex) with water available ad libitum. For dietary treatment of the mice with NB-DNJ or NB-DGJ, the diet and compound were admixed thoroughly as dry solids, stored at room temperature and used within 7 days. Unless indicated otherwise, mice were treated with a dose of 2400 mg/kg body weight per day, assuming an intake of around 5 g diet/day. Mice were maintained on diet with or without compound for up to six months of age and were weighed at regular intervals during the course of the experiment (see figure legends for group sizes and further experimental details). To study the effect of compound on obese mice, three groups (n=5) of ob/ob mice were monitored from five weeks of age. One group acted as control and were fed ground RM1 diet. At 6 weeks of age, the second group was started on NB-DNJ in the diet, whilst the third group started drug treatment at 12 weeks of age. All mice were then monitored for up to six months of age. […] In the first week of treatment, mice with NB-DNJ in their diet lost about 10% of their total body mass. Over the course of the following weeks, their weight stabilises. By 5 weeks of treatment they weighed 25% less than the controls. They then started to gain weight. However, after 10 weeks they remained 20% less in mass when compared with the age and sex-matched control group.

| Compound | increase in feeding (lean control mouse) | effect on dietary intake (control lean mice) | effect on weight change (control lean mice) | effect on food intake (lean control mouse) | ate less than control mice of FIG. 7 (lean control mouse; not statistically significant) | effect on growth / body weight (C57B1/6 mice) |
| --- | --- | --- | --- | --- | --- | --- |
| O=CC[C@@H](O)[C@H](O)[C@H](O)CO [2-deoxy-glucose, 2-deoxyglucose] | 10% |  |  |  |  |  |
| CCCCN1C[C@H](O)[C@@H](O)[C@@H](O)[C@H]1CO [NB-DGJ] |  | no statistically significant effect | no statistically significant effect | no effect | approximately 5% | did not lose weight; also recorded: no discernible effect |

Source: patent publication US20060025449A1, “Use of N-substituted imino sugars for appetite suppression” (priority 2004, published 2006)
